Like-named read-outs stand apart in the source and are kept apart here. Ends that are not written are not given here.
Key:
BJ fibroblasts [1] = experiment: Reductide plate reader assay in cells (FAM signal after treatment with redox-modifying agents); format: cell-based, human; details: for reductide FAM signal, % of control at 50 µM: Homo sapiens, Fibroblast, 50 μM compound for 24 hours, then reductide 1.5 μM for four hours, in comparison with vehicle treated cells, read-out: % change from control (reductide FAM signal)
Experimental: BJ fibroblasts were trypsinized and re-plated in a 96-well plate (5,000 cells/well) in normal growth medium and allowed to attach overnight. Media was replaced with normal media supplemented with the chemical redox-modifying agent indicated in the “Results” section for the indicated duration of treatment. Cells were subsequently washed one time with PBS and media was replaced with normal media supplemented with reductide 1 μM.
BJ fibroblasts in 96-well plates were pretreated with various redox-modifying agents followed by washing, incubation with reductide, and assessment of fluorescence by plate reader. […] However, following twenty-four hours of treatment with H2O2, FAM signal was increased for BJ fibroblasts treated with 200-400 μM H2O2 (FIG. 4D) but decreased with higher doses.
Although glutathione is the most abundant intracellular redox buffering system, the protein thioredoxin also acts as an important redox buffer. In order to test whether uptake and reduction of reductide is affected by glutathione status, thioredoxin status, or both, BJ fibroblasts were treated with the specific inhibitor of thioredoxin reductase, aurothioglucose, the inhibitor of glutathione biosynthesis, 1-buthionine sulfoximine (BSO), or both for 24 hours followed by washing, incubation with reductide for four hours, and plate reader assay. […] Thus, uptake and reduction of reductide depends on both glutathione and thioredoxin systems.
In another test to determine whether uptake and reduction of reductide is affected by glutathione status, BJ fibroblasts were treated with 1-buthionine sulfoximine (BSO), an inhibitor of glutathione biosynthesis, or diamide, a thiol oxidizing agent that decreases the cellular GSH to GSSG ratio. […] The following day, cells were treated with the glutathione biosynthesis inhibitor 1-buthionine sulfoximine (BSO) (FIG. 6a) or the thiol oxidizing agent diamide (FIG. 6b) in normal media also containing reductide 1 μM.
The following day, cells were incubated in normal cell media supplemented with 50 μM of a redox-modifying compound from the redox library distributed from Enzo Life Sciences. Each redox compound was used to treat three wells for 24 hours. Afterward, cells were washed with PBS followed by incubation in reductide 1 μM dissolved in normal media for four hours. FAM signal from reduction of reductide's disulfide bond was assayed in a plate reader. Most compounds in the library are classified as antioxidants. […] It should be noted that the screening conditions (50 μM concentration, 24 hour drug incubation) were not optimized for each drug individually. That many antioxidants can act as pro-oxidants if their concentration is sufficiently high is well known. […] When retested at new concentrations, different results were obtained (FIG. 10a-c), showing an increase in signal expected for reduction.
Cells were subsequently washed with PBS and incubated with reductide 1.5 μM dissolved in cell media for four hours. FAM signal was assayed in a plate reader. The redox modifying compounds were obtained as an 84 compound library from Enzo Life Sciences. Percentage change in reductide signal in comparison with vehicle treated cells are shown for a subset of the redox modifying compounds.

H9C2 cells = experiment: Secondary test: protection of cells from hydrogen peroxide oxidative stress, viability by Alamar Blue; format: cell-based, rat; details: 4 μM hit for 24 hours; 24 hours after treatment with 600 μM hydrogen peroxide (FIG. 11b)
Experimental: (§1) For comparison with Alamar Blue™ (Invitrogen, Carlsbad, Calif.), cells in a 96-well plate were washed with PBS followed by four hours of incubation with Alamar Blue diluted 1:10 in normal media according to the manufacturer's instructions. Alamar Blue fluorescence was assayed in a plate reader using excitation and emission wavelengths 540 nm and 590 nm, respectively.
(§2) A secondary test was performed to evaluate the ability of each hit to protect cells from oxidative stress. Cells in 96-well plates were incubated with hits dissolved to 4 μM in cell media for 24 hours (three wells per compound). Cells were then washed once with PBS, and treated with hydrogen peroxide dissolved in cell media for four hours. Cells were then washed once with PBS, and cell viability was assayed with Alamar Blue.
(§3) Control cells were not treated with hydrogen peroxide. Every other category, including DMSO, was treated with 240 μM hydrogen peroxide for four hours prior to viability assessment with Alamar Blue. P-value for 10E4 vs. DMSO is 0.04, p-value for 10E4 vs. control is 0.98, and p-value for DMSO vs. control is 0.02. […] Control cells were not treated with hydrogen peroxide. DMSO pre-treated cells and every other category was treated with 980 μM hydrogen peroxide for four hours prior to the addition of Alamar Blue. […]

IMR90 fibroblasts [2] = experiment: Flow cytometry of cells incubated with reductide (TAMRA, FAM, DAPI, side-scatter); format: cell-based, human
Experimental: IMR90 fibroblasts were seeded onto six 10 cm dishes at a density of 1.8×10^6 cells and allowed to attach overnight. Three dishes were treated with H2O2 600 μM and another three with NAC 4 mM, each in normal media, for one hour. Cells were washed with PBS followed by incubation with reductide 1 μM in normal media for 3, 15, or 30 minutes. Cells were then washed again with PBS followed by trypsinization and collection in normal media without phenol red. Cell concentration was 10^6 per ml. DAPI was added at 1:500 dilution and cells were analyzed by flow cytometry for TAMRA and FAM fluorescence.
IMR90 cells were seeded into 10 cm dishes at a density of 1.8×106 and allowed to attach overnight. The following day, cells were pretreated with NAC 4 mM or H2O2 600 μM for 60 minutes prior to peptide incubation.

IMR90 fibroblasts [3] = system: IMR90 fibroblasts
Experimental: For comparison with monochlorobimane, IMR90 fibroblasts were seeded into a 96 well plate at a density of 50,000 cells per well and attached overnight. Cells were incubated for 60 minutes in media containing NAC or H2O2 at the indicated concentrations. Cells were washed twice in 200 μl of PBS. Monochlorobimane was used to assay reduced GSH content in half the wells using the Glutathione Assay Kit available from Sigma (CS 1020, St. Louis, Mo., USA), following the manufacturer's instructions for use in live cells in a plate reader. At the same time, reductide was dissolved in the same assay buffer used for monochlorobimane treatment and added to half of the wells at a concentration of 1 μM. Fluorimetric readings were performed in a Synergy HT plate reader using excitation and emission wavelengths of 485 nm/528 nm for reductide and 390 nm/478 nm for monochlorobimane. Each cell condition was triplicated, and each experiment was repeated two times.
Reductide (FIG. 8a) is compared with monochlorobimane (FIG. 8b), which is non-fluorescent unless conjugated to low molecular weight thiols, in IMR90 fibroblasts following pretreatment with NAC or H2O2. Cells were seeded into a 96-well plate at a density of 50,000 cells per well and allowed to attach overnight. […]

BJ fibroblasts [4] = experiment: Secondary test: protection of cells from hydrogen peroxide oxidative stress, viability by Alamar Blue; format: cell-based, human; details: 4 μM hit for 24 hours; 980 μM hydrogen peroxide for four hours; viability 24 hours following treatment (FIG. 11c)
Experimental: as §1, §2, §3

[5] = within 30 minutes of incubation; cited from earlier work
[6] = treated in normal media also containing reductide 1 μM (FIGS. 6a-b)
[7] = treated for 24 hours, washing, reductide for four hours (FIG. 5)
[8] = 50 μM for 24 hours, then reductide 1 μM for four hours
[9] = retested at lower concentrations (FIG. 10a-c)
[10] = pretreatment at varied concentration, washing, incubation with reductide (FIG. 4A, 4B)

CCCCCCCCCCCCCCCC(=O)OC/C=C(C)/C=C/C=C(C)/C=C/C1=C(C)CCCC1(C)C [Retinyl palmitate]
reductide FAM signal, % of control at 50 µM (BJ fibroblasts [1]): 124%

CC(=O)O[C@@H]1C[C@@]2(C)[C@H](c3ccoc3)C[C@H]3O[C@]32[C@]2(C)C(=O)C(O)=C3C(C)(C)C(=O)C=C[C@]3(C)[C@@H]12 [20B8, anthothecol]
viability signal vs. DMSO (H9C2 cells): significantly higher than DMSO

OO [H2O2, hydrogen peroxide]
FAM signal after pretreatment (BJ fibroblasts [1]; four hours of incubation with H2O2 (FIG. 4C)): decreased in proportion to H2O2 concentration | FAM signal after pretreatment (BJ fibroblasts [1]; twenty-four hours of treatment, 200-400 μM H2O2 (FIG. 4D)): increased | FAM signal after pretreatment (BJ fibroblasts [1]; twenty-four hours of treatment, higher doses than 200-400 μM (FIG. 4D)): decreased | nonviable cells by side-scatter or DAPI signal (IMR90 fibroblasts [2]; reductide 1 μM for 3, 15 or 30 minutes vs. controls, H2O2 600 μM pretreatment for 60 minutes): No increase in nonviable cells | FAM signal following incubation with reductide (IMR90 fibroblasts [3]; pretreatment 600 μM for 60 minutes (FIG. 8a)): significant decrease in FAM signal | FAM signal following incubation with reductide (IMR90 fibroblasts [3]; pretreatment with low doses for 60 minutes (FIG. 8a)): mild increases in FAM signal

CN(C)C(=O)/N=N/C(=O)N(C)C [diamide]
reductide FAM signal (BJ fibroblasts [1]; [6]): significant decrease in reductide FAM signal

C=C(C)C(=O)C(=CC(=O)O)OC [3E7, penicillic acid]
viability vs. control (not treated with hydrogen peroxide) (BJ fibroblasts [4]): significantly higher than control

OC[C@H]1O[C@H]([S-])[C@H](O)[C@@H](O)[C@@H]1O.[Au+] [aurothioglucose]
reductide FAM signal (BJ fibroblasts [1]; [7]): small increase in reductide FAM signal that was not statistically significant

O=c1c2ccccc2[se]n1-c1ccccc1 [Ebselen]
reductide FAM signal, % of control at 50 µM (BJ fibroblasts [1]): 77.2%

CCN1C(=O)C=CC1=O [N-Ethylmaleimide]
reductide FAM signal, % of control at 50 µM (BJ fibroblasts [1]): -71.7%

COc1ccccc1OCCNCC(O)COc1cccc2[nH]c3ccccc3c12 (centres unmarked) [carvedilol]
FAM signal relative to vehicle treated cells (BJ fibroblasts [1]; [8]): significant decrease in FAM signal | FAM signal relative to vehicle treated cells (BJ fibroblasts [1]; [9]): increase in FAM signal consistent with reduction

CN(C)C(=S)SSC(=S)N(C)C [9B11, thiram]
viability signal vs. DMSO (H9C2 cells): significantly higher than DMSO

CCOc1ccc2c(c1)C(C)=CC(C)(C)N2 [Ethoxyquin]
reductide FAM signal, % of control at 50 µM (BJ fibroblasts [1]): 155%

Cc1cc(Cc2cc(C)cc(C(C)(C)C)c2O)c(O)c(C(C)(C)C)c1 [GERI-BP002A]
FAM signal relative to vehicle treated cells (BJ fibroblasts [1]; [8]): significant decrease in FAM signal | FAM signal relative to vehicle treated cells (BJ fibroblasts [1]; [9]): increase in FAM signal consistent with reduction

O=[N+]([O-])c1ccc(Cl)c([N+](=O)[O-])c1 [CDNB, 1-chloro-2,4-dinitrobenzene]
FAM signal after pretreatment (BJ fibroblasts [1]; [10]): decreased in proportion to the concentration

KLALKLALKALKAALKLA-NH2 [MAP]
internalized fraction [5]: 60%

CC(=O)N[C@@H](CS)C(=O)O [NAC, N-acetylcysteine]
FAM signal after pretreatment (BJ fibroblasts [1]; [10]): increased in proportion to the concentration | TAMRA signal (reductide uptake) (IMR90 fibroblasts [2]; pretreatment NAC 4 mM for 60 minutes, then reductide 1 μM): strongest

COC1=C(OC)C(=O)C(CCCCCCCCCCO)=C(C)C1=O [Idebenone]
reductide FAM signal, % of control at 50 µM (BJ fibroblasts [1]): 121%

C[Se]CC[C@H](N)C(=O)O [selenomethionine]
FAM signal relative to vehicle treated cells (BJ fibroblasts [1]; all concentrations tested (FIG. 10a-c)): significant increase in FAM signal consistent with reduction

CC1=C(/C=C/C(C)=C/C=C/C(C)=C/C=C/C=C(C)/C=C/C=C(C)/C=C/C2=C(C)CCCC2(C)C)C(C)(C)CCC1 [β-carotene]
reductide FAM signal, % of control at 50 µM (BJ fibroblasts [1]): 111%

CCCCS(=N)(=O)CCC(N)C(=O)O (centres unmarked) [BSO, 1-buthionine sulfoximine]
reductide FAM signal (BJ fibroblasts [1]; [7]): significant increase in signal | reductide FAM signal (BJ fibroblasts [1]; [6]): significant decrease in reductide FAM signal

CC1=C(C)C(=O)C(C(CCCCCC(=O)O)c2ccccc2)=C(C)C1=O (centres unmarked) [Seratrodast]
reductide FAM signal, % of control at 50 µM (BJ fibroblasts [1]): 135%

Source: patent publication US20160223522A1, “ASSAY FOR DETERMINING RELATIVE REDOX CHANGES IN LIVING CELLS AND ASSOCIATED DEVICES, SYSTEMS, AND METHODS” (University of Utah Research Foundation, priority 2013, published 2016)
